{"source": "paper PMC9048745", "about": "“Physicochemical investigation of a novel curcumin diethyl γ-aminobutyrate, a carbamate ester prodrug of curcumin with enhanced anti-neuroinflammatory activity” (PLoS ONE, 2022)", "key": {"[1]": {"assay": "Chemical stability in aqueous buffer solutions at 37°C", "type": "physicochemical", "settings": "for half-life at 10 μg/mL: read-out: t1/2, hydrolysis (converted)", "description": "Chemical stability of CUR-2GE was performed at 37°C in aqueous buffer solutions at pH 1.2, 4.5, 6.8 and 7.4. CUR-2GE (1 mg) was dissolved in DMSO (1 mL) and adjusted with the diluent in a 5-mL volumetric flask to obtain a stock solution at 200 μg/mL. The stock solution was diluted with a pre-incubated buffer in a vial at 37°C at an initial concentration of 10 μg/mL [26]. Each sample was incubated at 37°C at appropriate intervals and analyzed using UPLC. The experiment was performed in triplicate. The hydrolytic products were also identified by comparing chromatographic retention times to curcumin and CUR-1GE. Kinetic profiles of CUR-2GE and its hydrolytic products, including curcumin and CUR-1GE, were determined by plotting percent peak area vs. incubation time. The linear slope of the natural logarithm of concentrations against time was used to calculate the degradation rate (k) and half-life (t1/2) using the linear pseudo-first-order model (see S1 Appendix). […]\nThe linear slopes of the natural logarithm of a concentration against time were used to calculate the degradation rate (k) for the pseudo-first-order (Eq. 5).\nLn [At] = Ln [A0] - kt (5)\nWhere A0 is the CUR-2GE concentration at time 0, At is the concentration of CUR-2GE at time t, and k is the degradation rate constant of CUR-2GE.\nThe half-lives (t1/2) of CUR-2GE were calculated by Eq. 6: […]"}, "[2]": {"tested_on": "IL-6 release in LPS-stimulated BV-2 microglial cells", "assay": "IL-6 ELISA", "type": "cell-based, murine", "settings": "10 μM, 12 h pre-incubation, then 1 μg/mL LPS 24 h; compared with curcumin", "description": "(§1) BV-2 microglial cells were plated in a 24-well plate at a density of 2 × 10^5 per well for 24 h. The cells were pre-incubated for 12 h with curcumin (10 μM), CUR-2GE (10 μM), medium (DMEM), or a vehicle (0.5% DMSO). The cells were then induced with 1 μg/mL LPS for 24 h. The culture medium samples were collected and analyzed for nitric oxide (NO) and cytokines (TNF- and IL-6) using NO and enzyme-linked immunoassay (ELISA) assays, respectively.\n(§2) Quantification of TNF-α and IL-6 was performed using commercially available ELISA kits according to the manufacturer’s protocol (BioLegend, San Diego, CA, USA). The absorbance was measured at 450 nm using the microplate reader, and the amount of TNF-α and IL-6 was determined against their corresponding standard curves of TNF-α and IL-6."}, "[3]": {"tested_on": "TNF-α release in LPS-stimulated BV-2 microglial cells", "assay": "TNF-α ELISA", "type": "cell-based, murine", "settings": "10 μM, 12 h pre-incubation, then 1 μg/mL LPS 24 h; compared with curcumin", "description": "as §1, §2"}, "[4]": {"tested_on": "BV-2 microglial cells", "assay": "Cytotoxicity (MTT assay)", "type": "cell-based, murine", "settings": "BV-2 cells, 24 h", "description": "BV-2 microglial cells were cultured in DMEM supplemented with 10% fetal bovine serum, 2 mM L-glutamine, 1% penicillin/streptomycin (100 units/mL penicillin and 100 μg/mL streptomycin) at 37°C in 5% CO2. BV-2 microglial cells were plated in a 24-well plate at a density of 2 × 10^5 cells/well for 24 h. Various concentrations at 0, 1.25, 2.5, 5, 10, or 20 μM of curcumin or CUR-2GE were determined for a non-toxic concentration. After 24 h, cell viability was assessed by an MTT assay. The media was removed and replaced with an MTT solution in PBS (0.5 mg/mL). After 3-h incubation, the MTT solution was discarded, and formazan crystals formed after the reaction was dissolved in DMSO. The absorbance was then read at 540 nm using a microplate reader (CLARIOstar®, BMG Labtech, Ortenberg, Germany). The percentage of cell viability was expressed relative to the control cells. In addition, the cell viability of BV-2 microglial cells treated with LPS and a combination of LPS and the test compounds was also determined."}, "[5]": {"tested_on": "BV-2 microglial cells", "assay": "In vitro cellular uptake (fluorescence microscopy)", "type": "cell-based, murine", "settings": "BV-2 cells, 4-h incubation, 20 μM and 100 μM, compared with curcumin", "description": "BV-2 microglial cells were plated in a 96-well plate (Costar, NY, USA) at a density of 10,000 cells/well for 24 h. The cells were incubated in DMEM media without phenol red for 4 h in the presence of curcumin and CUR-2GE at concentrations of 20 μM and 100 μM. Then, the sample was washed with PBS and the fluorescence intensity was measured using a fluorescence microscope (Olympus IX51 inverted microscope, Tokyo, Japan)."}}, "note": "Like-named read-outs stand apart in the source and are kept apart here.", "data": [{"molecule": "CCOC(=O)CCCNC(=O)Oc1ccc(/C=C/C(=O)/C=C(O)/C=C/c2ccc(OC(=O)NCCCC(=O)OCC)c(OC)c2)cc1OC", "note": "[CUR-2GE, Curcumin diethyl γ-aminobutyrate]", "values": [{"measurement": "hydrolysis rate in buffer pH 7.4 higher than pH 1.2", "setting": "[1]; 37°C", "result": 262, "unit": "folds"}, {"measurement": "hydrolysis rate in buffer pH 7.4 higher than pH 4.5", "setting": "[1]; 37°C", "result": 778, "unit": "folds"}, {"measurement": "hydrolysis rate in buffer pH 7.4 higher than pH 6.8", "setting": "[1]; 37°C", "result": 1.94, "unit": "folds"}, {"measurement": "half-life at 10 μg/mL", "setting": "[1]; aqueous buffer pH 1.2, buffer pH 1.2, 37°C", "result": "11.9 ± 0.14", "unit": "h"}, {"measurement": "half-life at 10 μg/mL", "setting": "[1]; aqueous buffer pH 4.5, buffer pH 4.5, 37°C", "result": "36.4 ± 8.53", "unit": "h"}, {"measurement": "half-life at 10 μg/mL", "setting": "[1]; aqueous buffer pH 6.8, buffer pH 6.8, 37°C", "result": "0.09 ± 0.01", "unit": "h"}, {"measurement": "half-life at 10 μg/mL", "setting": "[1]; aqueous buffer pH 7.4, buffer pH 7.4, 37°C", "result": "0.045 ± 0.002", "unit": "h"}, {"measurement": "k, pseudo-first-order hydrolysis", "setting": "[1]; buffer pH 1.2, 37°C", "result": "0.0583 ± 0.0007", "unit": "h⁻¹"}, {"measurement": "k, pseudo-first-order hydrolysis", "setting": "[1]; buffer pH 4.5, 37°C", "result": "0.020 ± 0.004", "unit": "h⁻¹"}, {"measurement": "k, pseudo-first-order hydrolysis", "setting": "[1]; buffer pH 6.8, 37°C", "result": "7.89 ± 0.54", "unit": "h⁻¹"}, {"measurement": "k, pseudo-first-order hydrolysis", "setting": "[1]; buffer pH 7.4, 37°C", "result": "15.31 ± 0.70", "unit": "h⁻¹"}, {"measurement": "inhibition of IL-6 release", "setting": "[2]", "result": "to a greater extent than curcumin"}, {"measurement": "inhibition of TNF-α release", "setting": "[3]", "result": "to a greater extent than curcumin"}, {"measurement": "non-toxic concentrations (no cytotoxicity)", "setting": "[4]", "result": "≤ 10", "unit": "µM"}, {"measurement": "cellular uptake (fluorescence intensity)", "setting": "[5]", "result": "higher fluorescence intensity than curcumin"}]}]}
